Our source for the IC50 values is patent US11111232B2, “Substituted cyclobutylpyridine and cyclobutylpyrimidine compounds as indoleamine 2,3-dioxygenase (IDO) inhibitors” (MERCK SHARP & DOHME CORP., priority 2017, dated 2021).

The target in one experiment is IDO1 (Homo sapiens, UniProt P14902). The experiment can be described thus: IDO1 cellular assay in Hela cells stimulated with IFNγ. The experiment is classed as cell-based. As to conditions: IFNγ 100 ng/mL, 300 uM L-tryptophan, about 48 hours, fluorescence readout. How it is done: IDO1 Cellular Assay in Hela Cells Stimulated with IFNγ
IDO1, sequence (P14902 whole entry): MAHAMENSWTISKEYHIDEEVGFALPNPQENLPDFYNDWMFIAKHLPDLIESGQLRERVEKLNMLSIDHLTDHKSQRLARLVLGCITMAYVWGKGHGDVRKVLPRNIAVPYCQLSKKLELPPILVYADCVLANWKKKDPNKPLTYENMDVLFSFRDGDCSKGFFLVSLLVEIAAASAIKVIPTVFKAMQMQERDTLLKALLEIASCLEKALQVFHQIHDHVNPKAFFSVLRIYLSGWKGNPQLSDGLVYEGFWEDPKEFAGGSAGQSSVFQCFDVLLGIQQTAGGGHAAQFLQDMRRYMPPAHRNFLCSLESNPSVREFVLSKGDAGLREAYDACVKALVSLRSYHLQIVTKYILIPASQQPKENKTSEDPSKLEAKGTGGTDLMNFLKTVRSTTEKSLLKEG
Hela cells were cultured in complete Hela culture medium (90% EMEM, 10% heat-inactivated fetal bovine serum) and expanded to about 1×10^9 cells. The cells were then collected and frozen down at 1×10^7 cells/vial in 1 mL frozen medium (90% complete Hela culture medium, 10% DMSO)
Compounds to be tested were serially diluted in ten 3-fold steps in DMSO starting from 10 mM DMSO stocks in Echo low volume plate(s).
Frozen Hela cells were thawed and transferred into Hela assay medium (99% complete Hela culture medium, 1% Pen/Strep) with 20 mL medium/vial of cells. The cells were spun down at 250 g in a table top centrifuge for 5 min and suspended in same volume of Hela assay medium. […] Sterile L-tryptophan were added to the cells with final concentration of 300 uM L-tryptophan. A small aliquot (2 mL/plate) of Hela cells were set aside and were not treated with IFNγ, to serve as the Max-E control.
Hela cells with and without IFNγ were dispensed to the respective wells of 384-well assay plates containing the compounds. The plates were incubated for about 48 hours at a 37° C., 5% CO2 incubator. Afterwards, […] of 0.5 M methyl isonipecotate in dimethyl sulfoxide were added into each well and the plates were sealed and incubated at 37° C. without CO2 overnight. The plates were centrifuged for 1 min at 200×g. The resulting fluorescence was measured in a Spectramax plate reader (Molecular Devices) with a 400 nm excitation filter and a 510 nm emission filter.
Potencies were calculated by linear least squares fit to the four parameter logistic IC50 equation.

The target in the next experiment is T1, TDO (Homo sapiens, UniProt P48775).
T1 construct: endogenous in cells; host or cells: SW48 cells (A2780 cells as low-TDO control)
T1 sequence (P48775 whole entry): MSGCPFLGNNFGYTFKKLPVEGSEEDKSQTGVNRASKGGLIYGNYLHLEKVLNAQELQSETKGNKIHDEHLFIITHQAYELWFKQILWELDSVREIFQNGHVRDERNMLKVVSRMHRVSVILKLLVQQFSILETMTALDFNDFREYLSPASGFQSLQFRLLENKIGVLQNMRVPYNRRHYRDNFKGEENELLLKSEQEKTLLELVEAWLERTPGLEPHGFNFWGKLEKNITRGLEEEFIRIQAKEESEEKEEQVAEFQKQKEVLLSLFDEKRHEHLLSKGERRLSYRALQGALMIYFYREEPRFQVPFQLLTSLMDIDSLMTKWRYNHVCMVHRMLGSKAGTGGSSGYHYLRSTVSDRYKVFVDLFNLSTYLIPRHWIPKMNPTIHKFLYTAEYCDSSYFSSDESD
The experiment can be described thus: TDO cellular assay in frozen SW48 cells. The class given is cell-based. The note with it: 300 uM L-tryptophan, about 48 hours, fluorescence readout. How it is done: TDO Cellular Assay in Frozen SW48 Cells
SW48 cells were cultured in complete RPMI culture medium (90% RPMI, 10% heat-inactivated fetal bovine serum).
Compounds to be tested were serially diluted in ten 3-fold steps in DMSO starting from 10 mM DMSO stocks in Echo low volume plate(s). […] The cells were spun down at 350 g in a table top centrifuge for 5 minutes and suspended in same volume of RPMI assay medium. […] Sterile L-tryptophan (Sigma, Cat #T0254) was added to the cells with final concentration of 300 uM.
SW48 and A2780 cells were dispensed to the respective wells of 384-well assay plates containing the compounds. The plates were incubated for about 48 hours at a 37° C., 5% CO2 incubator. Afterwards, 12 μL of 0.5 M ethyl isonipecotate (Sigma Aldrich, Cat #E33505) in dimethyl sulfoxide were added into each well and the plates were sealed and incubated at 37° C. without CO2 overnight. The plates were centrifuged for 1 minute at 200×g. The resulting fluorescence was measured in a Spectramax plate reader (Molecular Devices) with a 400 nm excitation filter and a 510 nm emission filter.
The fluorescence intensity of each well was corrected for the background observed in wells with A2780 cells and was expressed as a fraction of the intensity observed in wells of SW48 cells and DMSO only. Potencies were calculated by linear least squares fit to the four parameter logistic IC50 equation.

For `N#Cc1cccc(C(=O)Nc2ccc(C3(NC(=O)c4ccc(Cl)nc4)CCC3)nc2)c1` [Example 48, 6-chloro-N-(1-{5-[(3-cyanobenzene-1-carbonyl)amino]pyridin-2-yl}cyclobutyl)pyridine-3-carboxamide], the results for the IC50 against IDO1 and against TDO were 0.035 µM and at least 10 µM, respectively.

`Cc1cccc(C(=O)Nc2ccc(C3(C(=O)Nc4ccc(F)nc4)CCC3)cn2)n1` [Example 8, N-(5-{1-[(6-fluoropyridin-3-yl)carbamoyl]cyclobutyl}pyridin-2-yl)-6-methylpyridine-2-carboxamide]: the 50% inhibitory concentration (IC50) was 0.043 µM against IDO1 and at least 10 µM on TDO.

On to `O=C(Nc1ccc(C2(C(=O)Nc3ccc(F)cc3)CCC2)cn1)c1c(F)ccc(Cl)c1F` [Example 21, 3-chloro-2,6-difluoro-N-(5-{1-[(4-fluorophenyl)carbamoyl]cyclobutyl}pyridin-2-yl)benzamide], for which the IC50 is 0.094 µM at IDO1 and at least 10 µM against TDO.

With `N#Cc1cncc(C(=O)Nc2ccc(C3(C(=O)Nc4ccc(F)cc4)CCC3)cn2)c1` [Example 32, 5-cyano-N-(5-{1-[(4-fluorophenyl)carbamoyl]cyclobutyl}pyridin-2-yl)pyridine-3-carboxamide], the values for the IC50 at IDO1 and on TDO were 0.174 µM and at least 10 µM, respectively.

As to `O=C(Nc1ccc(C2(NC(=O)c3ccc(Cl)nc3)CCC2)nc1)c1ccnc(C(F)(F)F)c1` [Example 45, 6-chloro-N-[1-(5-{[2-(trifluoromethyl)pyridine-4-carbonyl]amino}pyridin-2-yl)cyclobutyl]pyridine-3-carboxamide], the IC50 against IDO1 is 0.469 µM; on TDO, at least 10 µM.

With `O=C(NC1(c2ccc(NC(=O)c3ncccn3)cn2)CCC1)c1ccc(Cl)nc1` [Example 50, N-(6-{1-[(6-chloropyridine-3-carbonyl)amino]cyclobutyl}pyridin-3-yl)pyrimidine-2-carboxamide], the values for the IC50 at IDO1 and on TDO were 1.7 µM and at least 10 µM, respectively.

On to `O=C(Nc1ccc(C2(NC(=O)c3ccc(Cl)nc3)CCC2)nc1)c1ccnc(Cl)c1` [Example 43, 6-chloro-N-(1-{5-[(2-chloropyridine-4-carbonyl)amino]pyridin-2-yl}cyclobutyl)pyridine-3-carboxamide], for which the IC50 on IDO1 was 0.377 µM; against TDO, at least 10 µM.

As to `O=C(NC1CCCCC1)c1ccc(C2(C(=O)Nc3ccc(F)cc3)CCC2)cn1` [Example 35, N-cyclohexyl-5-(1-((4-fluorophenyl)carbamoyl)cyclobutyl)picolinamide], the IC50 against IDO1 is 0.473 µM; at TDO, at least 10 µM.

On to `N#Cc1cncc(C(=O)Nc2ccc(C3(NC(=O)c4ccc(Cl)nc4)CCC3)nc2)c1` [Example 49, N-(6-{1-[(6-chloropyridine-3-carbonyl)amino]cyclobutyl}pyridin-3-yl)-5-cyanopyridine-3-carboxamide], for which the IC50 is 1.21 µM against IDO1 and at least 10 µM against TDO.

In the case of `CC(C)(C)CCC(=O)Nc1ccc(C2(C(=O)Nc3ccc(F)cc3)CCC2)cn1` [Example 11, 1-{6-[(4,4-dimethylpentanoyl)amino]pyridin-3-yl}-N-(4-fluorophenyl)cyclobutane-1-carboxamide], the IC50 on IDO1 was 0.096 µM; against TDO, at least 10 µM.

Turning to `N#C[C@@H]1CCC[C@@H](C(=O)Nc2ccc(C3(C(=O)Nc4ccc(F)cc4)CCC3)cn2)C1` [Example 13, (1R,3R)-3-cyano-N-(5-{1-[(4-fluorophenyl)carbamoyl]cyclobutyl}pyridin-2-yl)cyclohexane-1-carboxamide], the IC50 against IDO1 was 0.236 µM; at TDO it was at least 10 µM.

Turning to `O=C(Nc1ccc(C2(C(=O)Nc3ccc(F)cc3)CCC2)cn1)C1CCC(F)(F)CC1` [Example 9, 4,4-difluoro-N-(5-{1-[(4-fluorophenyl)carbamoyl]cyclobutyl}pyridin-2-yl)cyclohexane-1-carboxamide], the IC50 on IDO1 was 0.056 µM; against TDO, at least 10 µM.

Take `Cc1cc(C(=O)Nc2ccc(C3(NC(=O)c4ccc(Cl)nc4)CCC3)nc2)ccn1` [Example 46, 6-chloro-N-(1-{5-[(2-methylpyridine-4-carbonyl)amino]pyridin-2-yl}cyclobutyl)pyridine-3-carboxamide]: the IC50 against IDO1 is 1.06 µM; against TDO, at least 10 µM.

In the case of `O=C(Nc1ccc(C2(C(=O)Nc3ccc(F)cc3)CCC2)cn1)c1cncc(F)c1` [Example 28, 5-fluoro-N-(5-{1-[(4-fluorophenyl)carbamoyl]cyclobutyl}pyridin-2-yl)pyridine-3-carboxamide], the IC50 against IDO1 is 0.03 µM; on TDO it was at least 10 µM.

On to `O=C(Nc1ccc(C2(C(=O)Nc3ccc(F)cc3)CCC2)cn1)c1cc(Cl)ccn1` [Example 26, 4-chloro-N-(5-{1-[(4-fluorophenyl)carbamoyl]cyclobutyl}pyridin-2-yl)pyridine-2-carboxamide], for which the results for the IC50 at IDO1 and against TDO were 0.013 µM and at least 10 µM, respectively.

For the compound `O=C(NC1(c2ccc(NC(=O)c3nccs3)cn2)CCC1)c1ccc(Cl)nc1` [Example 40, 6-chloro-N-(1-{5-[(1,3-thiazole-2-carbonyl)amino]pyridin-2-yl}cyclobutyl)pyridine-3-carboxamide], the IC50 is 0.28 µM at IDO1 and at least 10 µM against TDO.

On to `O=C(Nc1ccc(C2(C(=O)Nc3ccc(F)nc3)CCC2)cn1)c1cccc(Cl)n1` [Example 6, 6-chloro-N-(5-{1-[(6-fluoropyridin-3-yl)carbamoyl]cyclobutyl}pyridin-2-yl)pyridine-2-carboxamide], for which the 50% inhibitory concentration (IC50) was 0.094 µM against IDO1 and at least 10 µM on TDO.

Take `CCCNC(=O)C1(c2ccc(NC(=O)c3cccc(Cl)c3)nc2)CCC1` [Example 4, 3-chloro-N-{5-[1-(propylcarbamoyl)cyclobutyl]pyridin-2-yl}benzamide]: the IC50 is 0.151 µM on IDO1 and at least 10 µM on TDO.

As for `O=C(CCC1CC1)Nc1ccc(C2(C(=O)Nc3ccc(F)nc3)CCC2)cn1` [Example 12, 1-{6-[(3-cyclopropylpropanoyl)amino]pyridin-3-yl}-N-(6-fluoropyridin-3-yl)cyclobutane-1-carboxamide], the values for the IC50 at IDO1 and against TDO were 0.227 µM and at least 10 µM, respectively.

As to `O=C(Nc1ccc(C2(C(=O)NC3CCC(F)(F)CC3)CCC2)cn1)c1cncc(Cl)c1` [Example 33, 5-Chloro-N-(5-(1-((4,4-difluorocyclohexyl)carbamoyl)cyclobutyl)pyridin-2-yl)nicotinamide], the IC50 is 1.6 µM at IDO1 and at least 10 µM against TDO.

`CC(C)(C)OC(=O)Nc1ccc(C2(C(=O)Nc3ccc(F)cc3)CCC2)cn1` [Example 19, tert-butyl (5-{1-[(4-fluorophenyl)carbamoyl]cyclobutyl}pyridin-2-yl)carbamate]: the IC50 against IDO1 is 0.103 µM; on TDO, at least 10 µM.

Take `O=C(NC1(c2ccc(NC(=O)c3ncco3)cn2)CCC1)c1ccc(Cl)nc1` [Example 39, N-(6-(1-(6-chloronicotinamido)cyclobutyl)pyridin-3-yl)oxazole-2-carboxamide]: the IC50 against IDO1 was 0.921 µM; on TDO it was at least 10 µM.

For `O=C(Nc1ccc(C2(C(=O)Nc3ccc(F)cn3)CCC2)cn1)c1cncc(Cl)c1` [Example 34, 5-chloro-N-(5-{1-[(5-fluoropyridin-2-yl)carbamoyl]cyclobutyl}pyridin-2-yl)pyridine-3-carboxamide], the IC50 on IDO1 is 0.104 µM; against TDO, at least 10 µM.

For the compound `O=C(Nc1ccc(C2(NC(=O)c3ccc(Cl)nc3)CCC2)nc1)c1cncc(Cl)c1` [Example 44, 5-chloro-N-(6-{1-[(6-chloropyridine-3-carbonyl)amino]cyclobutyl}pyridin-3-yl)pyridine-3-carboxamide], the figures for the IC50 at IDO1 and against TDO were 0.131 µM and at least 10 µM, respectively.

In the case of `N#Cc1cccc(C(=O)Nc2ccc(C3(C(=O)Nc4ccc(F)cc4)CCC3)nc2O)c1` [Example 54, 3-cyano-N-(6-(1-((4-fluorophenyl)carbamoyl)cyclobutyl)-2-hydroxypyridin-3-yl)benzamide], the IC50 on IDO1 was determined as 0.54 µM.
